Experimental data: ChEMBL document CHEMBL1926622, “Novel cyclohexyl-amides as potent antibacterials targeting bacterial type IIA topoisomerases” (Bioorg Med Chem Lett, 2011)
Converted amounts (≈) assume the structure as drawn. Blank lines part the entries; values can stand above or below the compound they belong to. The source made the active and inactive calls. No cut-off for these calls is given here.

How the values were obtained:
[1] = Inhibition of Escherichia coli DNA gyrase-mediated DNA replication using [3H]dATP by scintillation proximity assay
Haemophilus influenzae [2] = assay: Antibacterial activity against Haemophilus influenzae Q1 after 18 to 24 hrs by broth microdilution technique; format: functional
Staphylococcus aureus = assay: Antibacterial activity against Staphylococcus aureus WCUH 29 after 18 to 24 hrs by broth microdilution technique; format: functional
Streptococcus pneumoniae [3] = assay: Antibacterial activity against Streptococcus pneumoniae 1629 after 18 to 24 hrs by broth microdilution technique; format: functional
[4] = molecular target: Voltage-gated inwardly rectifying potassium channel KCNH2 (Homo sapiens, UniProt Q12809); assay: Inhibition of human ERG by whole cell patch clamp assay
Haemophilus influenzae [5] = assay: Antibacterial activity against Haemophilus influenzae H128 after 18 to 24 hrs by broth microdilution technique; format: functional
[6] = Intrinsic clearance in monkey liver microsomes; format: ADME, Macaca mulatta, Microsome; conditions: rhesus monkey
[7] = Plasma protein binding in human; format: ADME, cell-free; conditions: read-out: PPB (converted)
Liver microsomes [8] = assay: Intrinsic clearance in human liver microsomes; format: ADME, Microsome
Rattus norvegicus [9] = assay: Hepatic blood flow in Sprague-Dawley rat at 2.9 mg/kg, iv; format: ADME, organism-based, Liver; design: dose 2.9 mg/kg, route intravenous; conditions: in vivo
Canis familiaris [10] = assay: Hepatic blood flow in Beagle dog at 2.6 mg/kg, iv; format: ADME, organism-based, Canis lupus familiaris, Liver; design: dose 2.6 mg/kg, route intravenous; conditions: in vivo
Cynomolgus monkey [11] = assay: Hepatic blood flow in cynomolgus monkey at 2.7 mg/kg, iv; format: ADME, organism-based, Macaca fascicularis, Liver; design: dose 2.7 mg/kg, route intravenous; conditions: in vivo
Rattus norvegicus [12] = assay: Renal clearance in Sprague-Dawley rat at 2.9 mg/kg, iv; format: ADME, organism-based, Kidney; design: dose 2.9 mg/kg, route intravenous; conditions: in vivo
Canis familiaris [13] = assay: Renal clearance in Beagle dog at 2.6 mg/kg, iv; format: ADME, organism-based, Canis lupus familiaris, Kidney; design: dose 2.6 mg/kg, route intravenous; conditions: in vivo
Cynomolgus monkey [14] = assay: Renal clearance in cynomolgus monkey at 2.7 mg/kg, iv; format: ADME, organism-based, Macaca fascicularis, Kidney; design: dose 2.7 mg/kg, route intravenous; conditions: in vivo
Liver microsomes [15] = assay: Drug metabolism in rat liver microsomes assessed as mono-oxidation metabolite formation; format: ADME, Microsome
[16] = Drug metabolism in dog liver microsomes assessed as mono-oxidation metabolite formation; format: ADME, Canis lupus familiaris, Microsome
[17] = Drug metabolism in monkey liver microsomes assessed as mono-oxidation metabolite formation; format: ADME, Macaca mulatta, Microsome; conditions: rhesus monkey
Streptococcus pneumoniae [18] = assay: Antibacterial activity against Streptococcus pneumoniae 1629 infected in rat assessed as log decrease in colony forming units per lung at 25 mg/kg, po after 48 hrs relative to untreated control; format: functional
Streptococcus pneumoniae [19] = assay: Antibacterial activity against Streptococcus pneumoniae 1629 infected in rat assessed as complete eradication of infection at 50 mg/kg, po after 48 hrs; format: functional, organism-based; design: dose 50 mg/kg
[20] = Blood clearance in Sprague-Dawley rat at 2.9 mg/kg, iv; format: ADME, organism-based; design: dose 2.9 mg/kg, route intravenous
[21] = Volume of distribution at steady state in Sprague-Dawley rat at 2.9 mg/kg, iv; format: ADME, organism-based; design: dose 2.9 mg/kg, route intravenous; conditions: in vivo, read-out: Vdss
[22] = Half life in Sprague-Dawley rat at 2.9 mg/kg, iv; format: ADME, organism-based; design: dose 2.9 mg/kg, route intravenous; conditions: in vivo
[23] = AUC in Sprague-Dawley rat at 4.6 mg/kg, po; format: ADME, organism-based; design: dose 4.6 mg/kg, route oral; conditions: plasma
[24] = Mean residence time in Sprague-Dawley rat at 4.6 mg/kg, po; format: ADME, organism-based; design: dose 4.6 mg/kg, route oral; conditions: in vivo
[25] = Oral bioavailability in Sprague-Dawley rat at 4.6 mg/kg; format: ADME, organism-based; conditions: in vivo
[26] = Plasma protein binding in rat; format: ADME, cell-free; conditions: read-out: PPB (converted)
[27] = Blood clearance in Beagle dog at 2.6 mg/kg, iv; format: ADME, organism-based, Canis lupus familiaris; design: dose 2.6 mg/kg, route intravenous
[28] = Volume of distribution at steady state in Beagle dog at 2.6 mg/kg, iv; format: ADME, organism-based, Canis lupus familiaris; design: dose 2.6 mg/kg, route intravenous; conditions: in vivo, read-out: Vdss
[29] = Half life in Beagle dog at 2.6 mg/kg, iv; format: ADME, organism-based, Canis lupus familiaris; design: dose 2.6 mg/kg, route intravenous; conditions: in vivo
[30] = AUC in Beagle dog at 4.5 mg/kg, po; format: ADME, organism-based, Canis lupus familiaris; design: dose 4.5 mg/kg, route oral; conditions: plasma
[31] = Mean residence time in Beagle dog at 4.5 mg/kg, po; format: ADME, organism-based, Canis lupus familiaris; design: dose 4.5 mg/kg, route oral; conditions: in vivo
[32] = Oral bioavailability in Beagle dog at 4.5 mg/kg; format: ADME, organism-based, Canis lupus familiaris; conditions: in vivo
[33] = Plasma protein binding in dog; format: ADME, cell-free, Canis lupus familiaris; conditions: read-out: PPB (converted)
Liver = assay: Intrinsic clearance in dog liver microsomes; format: ADME, Canis lupus familiaris, Microsome
[34] = Blood clearance in cynomolgus monkey at 2.7 mg/kg, iv; format: ADME, organism-based, Macaca fascicularis; design: dose 2.7 mg/kg, route intravenous
[35] = Volume of distribution at steady state in cynomolgus monkey at 2.7 mg/kg, iv; format: ADME, organism-based, Macaca fascicularis; design: dose 2.7 mg/kg, route intravenous; conditions: in vivo, read-out: Vdss
[36] = Half life in cynomolgus monkey at 2.7 mg/kg, iv; format: ADME, organism-based, Macaca fascicularis; design: dose 2.7 mg/kg, route intravenous; conditions: in vivo
[37] = AUC in cynomolgus monkey at 4.4 mg/kg, po; format: ADME, organism-based, Macaca fascicularis; design: dose 4.4 mg/kg, route oral; conditions: plasma
[38] = Mean residence time in cynomolgus monkey at 4.4 mg/kg, po; format: ADME, organism-based, Macaca fascicularis; design: dose 4.4 mg/kg, route oral; conditions: in vivo
[39] = Oral bioavailability in cynomolgus monkey at 4.4 mg/kg; format: ADME, organism-based, Macaca fascicularis; conditions: in vivo
[40] = Plasma protein binding in monkey; format: ADME, cell-free, Macaca mulatta; conditions: rhesus monkey, read-out: PPB (converted)

Chain of Voltage-gated inwardly rectifying potassium channel KCNH2 (Q12809 whole entry): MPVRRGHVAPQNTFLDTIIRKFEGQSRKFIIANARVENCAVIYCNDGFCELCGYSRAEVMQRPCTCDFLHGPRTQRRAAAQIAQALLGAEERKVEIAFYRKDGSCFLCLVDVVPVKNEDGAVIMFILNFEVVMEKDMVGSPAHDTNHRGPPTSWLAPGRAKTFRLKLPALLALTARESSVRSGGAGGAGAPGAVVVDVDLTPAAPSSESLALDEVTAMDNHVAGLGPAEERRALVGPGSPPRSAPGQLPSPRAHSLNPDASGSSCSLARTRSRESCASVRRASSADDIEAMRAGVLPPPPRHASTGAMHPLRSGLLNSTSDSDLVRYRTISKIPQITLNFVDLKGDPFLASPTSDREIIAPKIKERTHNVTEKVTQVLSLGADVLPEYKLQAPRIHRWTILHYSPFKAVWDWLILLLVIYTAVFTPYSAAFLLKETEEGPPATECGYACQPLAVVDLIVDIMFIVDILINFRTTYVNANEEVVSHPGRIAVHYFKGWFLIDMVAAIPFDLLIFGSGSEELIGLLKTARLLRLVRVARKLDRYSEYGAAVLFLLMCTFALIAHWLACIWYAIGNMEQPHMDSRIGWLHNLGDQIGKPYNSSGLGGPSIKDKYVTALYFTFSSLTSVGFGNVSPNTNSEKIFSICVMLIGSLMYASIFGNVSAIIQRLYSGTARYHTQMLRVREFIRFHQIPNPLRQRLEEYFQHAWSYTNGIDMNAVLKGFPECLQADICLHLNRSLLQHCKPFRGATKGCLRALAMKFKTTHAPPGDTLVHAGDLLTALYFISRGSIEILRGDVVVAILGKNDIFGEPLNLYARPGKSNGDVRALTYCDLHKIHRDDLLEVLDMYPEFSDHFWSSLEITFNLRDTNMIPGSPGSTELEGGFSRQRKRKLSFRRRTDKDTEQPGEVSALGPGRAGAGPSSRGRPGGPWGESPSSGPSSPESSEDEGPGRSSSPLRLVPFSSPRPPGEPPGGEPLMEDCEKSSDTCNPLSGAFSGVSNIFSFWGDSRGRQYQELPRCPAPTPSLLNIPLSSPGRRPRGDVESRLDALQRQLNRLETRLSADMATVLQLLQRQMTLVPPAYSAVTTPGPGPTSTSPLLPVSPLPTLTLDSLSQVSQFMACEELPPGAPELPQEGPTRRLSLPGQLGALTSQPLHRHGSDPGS

SMILES: Cc1ccc2cccc(NC(=O)[C@H]3CC[C@H](NCc4cc5c(cn4)OCCO5)CC3)c2n1
- IC50 [1]: 0.069 µg/mL (≈ 0.16 µM)
- MIC (Haemophilus influenzae [5]): 2 µg/mL (≈ 4.62 µM)
- MIC (Staphylococcus aureus): 0.125 µg/mL (≈ 0.289 µM)
- MIC (Streptococcus pneumoniae [3]): 0.25 µg/mL (≈ 0.578 µM)

SMILES: N#Cc1ccc2cccc(NC(=O)[C@]3(O)CC[C@@H](NCc4cc5c(cn4)OCCO5)CC3)c2n1
- IC50 [1]: 0.002 µg/mL (≈ 0.00435 µM)
- MIC (Haemophilus influenzae [5]): 0.5 µg/mL (≈ 1.09 µM)
- MIC (Staphylococcus aureus): 0.03 µg/mL (≈ 0.0653 µM)
- MIC (Streptococcus pneumoniae [3]): 0.06 µg/mL (≈ 0.131 µM)

SMILES: CO[C@@H]1C[C@H](C(=O)Nc2cccc3ccc(C)nc23)CC[C@H]1NCc1cc2c(cn1)OCCO2
- IC50 [1]: 0.102 µg/mL (≈ 0.221 µM)
- MIC (Haemophilus influenzae [5]): 16 µg/mL (≈ 34.6 µM)
- MIC (Staphylococcus aureus): 0.5 µg/mL (≈ 1.08 µM)
- MIC (Streptococcus pneumoniae [3]): 0.5 µg/mL (≈ 1.08 µM)

SMILES: COc1cc(F)c2nccc(NC(=O)[C@]3(O)CC[C@@H](NCc4cc5c(cn4)OCCO5)CC3)c2c1
- IC50 [1]: 0.009 µg/mL (≈ 0.0187 µM)
- MIC (Haemophilus influenzae [5]): 1 µg/mL (≈ 2.07 µM)
- MIC (Staphylococcus aureus): 0.06 µg/mL (≈ 0.124 µM)
- MIC (Streptococcus pneumoniae [3]): 0.125 µg/mL (≈ 0.259 µM)
- IC50 [4]: 113 µM

SMILES: COc1ccc2nccc(NC(=O)[C@]3(O)CC[C@@H](NCc4cc5c(cn4)OCCO5)CC3)c2c1
- IC50 [1]: 0.01 µg/mL (≈ 0.0215 µM)
- MIC (Haemophilus influenzae [5]): 1 µg/mL (≈ 2.15 µM)
- MIC (Staphylococcus aureus): 0.125 µg/mL (≈ 0.269 µM)
- MIC (Streptococcus pneumoniae [3]): 0.125 µg/mL (≈ 0.269 µM)
- IC50 [4]: 200 µM

SMILES: Cc1ccc2cccc(NC(=O)[C@]3(O)CC[C@@H](NCc4cc5c(cn4)OCCO5)CC3)c2n1
- IC50 [1]: 0.05 µg/mL (≈ 0.111 µM)
- MIC (Haemophilus influenzae [5]): 2 µg/mL (≈ 4.46 µM)
- MIC (Staphylococcus aureus): 0.125 µg/mL (≈ 0.279 µM)
- MIC (Streptococcus pneumoniae [3]): 0.125 µg/mL (≈ 0.279 µM)
- IC50 [4]: 2 µM

SMILES: COc1ccc2nccc(NC(=O)[C@H]3CC[C@H](NCc4ccc5c(c4)OCCO5)CC3)c2n1
- IC50 [1]: 0.003 µg/mL (≈ 0.00669 µM)
- MIC (Haemophilus influenzae [5]): 1 µg/mL (≈ 2.23 µM)
- MIC (Staphylococcus aureus): 0.03 µg/mL (≈ 0.0669 µM)
- MIC (Streptococcus pneumoniae [3]): 0.125 µg/mL (≈ 0.279 µM)

Continued by falling MIC (Staphylococcus aureus), values first:

- IC50 [1]: 0.017 µg/mL (≈ 0.038 µM)
- MIC (Haemophilus influenzae [2]): 2 µg/mL (≈ 4.47 µM)
- MIC (Staphylococcus aureus): 0.03 µg/mL (≈ 0.067 µM)
- MIC (Streptococcus pneumoniae [3]): 0.25 µg/mL (≈ 0.559 µM)
SMILES: COc1ccc2nccc(NC(=O)[C@H]3CC[C@H](NCc4ccc5c(c4)OCCO5)CC3)c2c1
- IC50 [4]: 25 µM

- IC50 [1]: 0.01 µg/mL (≈ 0.0215 µM)
- MIC (Haemophilus influenzae [5]): 2 µg/mL (≈ 4.3 µM)
- MIC (Staphylococcus aureus): 0.03 µg/mL (≈ 0.0644 µM)
- MIC (Streptococcus pneumoniae [3]): 0.06 µg/mL (≈ 0.129 µM)
SMILES: COc1ccc2nccc(NC(=O)[C@]3(O)CC[C@@H](NCc4cnc5c(c4)OCCO5)CC3)c2n1

- IC50 [1]: 0.004 µg/mL (≈ 0.00861 µM)
- MIC (Haemophilus influenzae [5]): 0.5 µg/mL (≈ 1.08 µM)
- MIC (Staphylococcus aureus): 0.03 µg/mL (≈ 0.0646 µM)
- MIC (Streptococcus pneumoniae [3]): 0.03 µg/mL (≈ 0.0646 µM)
SMILES: COc1ccc2nccc(NC(=O)[C@]3(O)CC[C@@H](NCc4ccc5c(c4)OCCO5)CC3)c2n1
- IC50 [4]: 25 µM

- IC50 [1]: 0.001 µg/mL (≈ 0.00218 µM)
- MIC (Haemophilus influenzae [5]): 0.5 µg/mL (≈ 1.09 µM)
- MIC (Staphylococcus aureus): 0.01 µg/mL (≈ 0.0218 µM)
- MIC (Streptococcus pneumoniae [3]): 0.03 µg/mL (≈ 0.0653 µM)
SMILES: N#Cc1ccc2cccc(NC(=O)[C@@H]3CC[C@@H](NCc4cc5c(cn4)OCCO5)[C@@H](O)C3)c2n1

- IC50 [1]: 0.008 µg/mL (≈ 0.0178 µM)
- MIC (Haemophilus influenzae [5]): 0.25 µg/mL (≈ 0.556 µM)
- MIC (Staphylococcus aureus): 0.01 µg/mL (≈ 0.0222 µM)
- MIC (Streptococcus pneumoniae [3]): 0.03 µg/mL (≈ 0.0667 µM)
SMILES: COc1ccc2nccc(NC(=O)[C@H]3CC[C@H](NCc4cc5c(cn4)OCCO5)CC3)c2n1
- IC50 [4]: 29 µM

- CL [6]: 2.6 mL/min/g
- fraction unbound [7]: 0.274
- CL (Liver microsomes [8]): 0.8 mL/min/g
- IC50 [1]: 0.013 µg/mL (≈ 0.0279 µM)
- QH (Rattus norvegicus [9]): 73%
- QH (Canis familiaris [10]): 73%
- QH (Cynomolgus monkey [11]): 73%
- CL (Rattus norvegicus [12]): 3%
- CL (Canis familiaris [13]): 3%
- CL (Cynomolgus monkey [14]): 3%
- Drug metabolism (Liver microsomes [15]): Active
- Drug metabolism [16]: Active
- Drug metabolism [17]: Active
- MIC (Haemophilus influenzae [5]): 0.5 µg/mL (≈ 1.07 µM)
- MIC (Staphylococcus aureus): 0.01 µg/mL (≈ 0.0215 µM)
- MIC (Streptococcus pneumoniae [3]): 0.125 µg/mL (≈ 0.269 µM)
- clearance [20]: 41.1 mL/min/kg
- Vd [21]: 2.41 L/kg
- half-life [22]: 1 h
- AUC [23]: 340 ng·h/mL
- MRT [24]: 2.9 h
- bioavailability [25]: 18%
- fraction unbound [26]: 0.268
- clearance [27]: 8.4 mL/min/kg
- Vd [28]: 3.7 L/kg
- half-life [29]: 6.3 h
- AUC [30]: 5700 ng·h/mL
- MRT [31]: 9.8 h
- bioavailability [32]: 63%
- fraction unbound [33]: 0.263
- CL (Liver): 2.2 mL/min/g
- clearance [34]: 34.2 mL/min/kg
- Vd [35]: 4.1 L/kg
- half-life [36]: 1.8 h
- AUC [37]: 190 ng·h/mL
- MRT [38]: 6.4 h
- bioavailability [39]: 9%
- fraction unbound [40]: 0.165
SMILES: COc1ccc2nccc(NC(=O)[C@]3(O)CC[C@@H](NCc4cc5c(cn4)OCCO5)CC3)c2n1
- log10cfu (Streptococcus pneumoniae [18]): 2
- Activity (Streptococcus pneumoniae [19]): Active
